The values that follow come from patent US9809583B2 (priority 2014, dated 2017).

Like-named read-outs stand apart in the source and are kept apart here.

Broadly, the EC50 is the midpoint of the concentration-response curve.

The target in this assay is androgen receptor (hAR) (Homo sapiens (Human), UniProt P10275). In words: Test of transcriptional activity (hAR / ARE-Luc dual-luciferase assay in CHO cells). The note with it: CHO cells with hAR and ARE-Luc, 24 hours, 10 nM DHT = 100%. It is filed as cell-based. Here is the method:
In order to examine the transcriptional activity of the agonists of the present invention, the following in-vitro experiment was performed. CHO (Chinese hamster ovary) cell line (ATCC, #CCL-61) was seeded in a 96-well plate at a density of 1.5×10^4 cells/well, and cultured for 24 hours. Then, a plasmid hAR and plasmid ARE-Luc-mixed medium was added thereto. The transfected cell line was treated with 0.1˜10,000 nM of SARM derivatives, and then allowed to react for 24 hours.

The mark [1] stands for this setting: read-out: EC50 [nM] (mean ± SE).

Chain of androgen receptor (hAR) (P10275 whole entry): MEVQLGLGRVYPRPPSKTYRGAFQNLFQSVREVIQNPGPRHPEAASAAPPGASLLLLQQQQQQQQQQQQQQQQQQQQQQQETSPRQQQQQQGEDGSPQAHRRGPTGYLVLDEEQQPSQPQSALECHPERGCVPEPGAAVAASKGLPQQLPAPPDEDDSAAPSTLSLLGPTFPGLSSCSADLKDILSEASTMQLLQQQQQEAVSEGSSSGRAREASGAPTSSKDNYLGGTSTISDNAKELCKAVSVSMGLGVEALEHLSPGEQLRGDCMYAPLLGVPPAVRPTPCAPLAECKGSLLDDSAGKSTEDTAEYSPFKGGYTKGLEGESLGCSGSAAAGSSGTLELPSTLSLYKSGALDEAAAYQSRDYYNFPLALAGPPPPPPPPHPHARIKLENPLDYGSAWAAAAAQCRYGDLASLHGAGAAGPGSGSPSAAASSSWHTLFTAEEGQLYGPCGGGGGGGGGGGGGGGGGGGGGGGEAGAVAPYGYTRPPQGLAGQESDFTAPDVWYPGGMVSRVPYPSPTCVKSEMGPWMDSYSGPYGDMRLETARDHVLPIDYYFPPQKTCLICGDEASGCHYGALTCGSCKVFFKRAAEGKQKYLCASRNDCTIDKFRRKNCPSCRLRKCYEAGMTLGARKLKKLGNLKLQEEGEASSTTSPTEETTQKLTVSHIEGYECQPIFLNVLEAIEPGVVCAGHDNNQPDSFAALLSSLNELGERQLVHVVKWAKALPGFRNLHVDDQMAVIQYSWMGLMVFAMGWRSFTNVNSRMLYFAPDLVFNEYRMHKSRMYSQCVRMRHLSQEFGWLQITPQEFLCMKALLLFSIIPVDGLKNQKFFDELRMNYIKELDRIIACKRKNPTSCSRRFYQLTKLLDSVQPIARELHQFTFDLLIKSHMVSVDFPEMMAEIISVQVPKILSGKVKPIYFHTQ

Regarding `N#Cc1ccc(N2C[C@@H](COc3ccc(N)cc3)O[C@@H]2C(F)(F)F)cc1C(F)(F)F` [Example 14, 4-((2R,5S)-5-((4-aminophenoxy)methyl)-2-(trifluoromethyl)oxazolidin-3-yl)-2-(trifluoromethyl)benzonitrile], the midpoint of the response (EC50 [nM] (mean ± SE)), the EC50, lay at 111 nM. The same measure, in the same setting: to `N#Cc1ccc(N2C[C@@H](COc3ccc(NC(N)=O)cc3)O[C@@H]2C(F)(F)F)cc1C(F)(F)F` [Example 15, 1-(4-(((2R,5S)-3-(4-cyano-3-(trifluoromethyl)phenyl)-2-(trifluoromethyl)oxazolidin-5-yl)methoxy)phenyl)urea] belongs 15.7 nM; to `CNC(=O)Nc1ccc(OC[C@@H]2CN(c3ccc(C#N)c(C(F)(F)F)c3)[C@@H](C(F)(F)F)O2)cc1` [Example 16, 1-(4-(((2R,5S)-3-(4-cyano-3-(trifluoromethyl)phenyl)-2-(trifluoromethyl)oxazolidin-5-yl)methoxy)phenyl)-3-methylurea], 21.3 nM; to `N#Cc1ccc(N2C[C@@H](COc3ccc(N4CCCC4=O)cc3)O[C@@H]2C(F)(F)F)cc1C(F)(F)F` [Example 17, 4-((2R,5S)-5-((4-(2-oxopyrrolidin-1-yl)phenoxy)methyl)-2-(trifluoromethyl)oxazolidin-3-yl)-2-(trifluoromethyl)benzonitrile], 24 nM. Take `N#Cc1ccc(N2C[C@@H](COc3ccc(-c4nnco4)cc3)O[C@@H]2C(F)(F)F)cc1C(F)(F)F` [Example 18, 4-((2R,5S)-5-((4-(1,3,4-oxadiazol-2-yl)phenoxy)methyl)-2-(trifluoromethyl)oxazolidin-3-yl)-2-(trifluoromethyl)benzonitrile]: it took 18.6 nM to reach a half-maximal effect (EC50 [nM] (mean ± SE)) (EC50). On the same count and under the same terms, to `N#Cc1ccc(N2C[C@@H](COc3ccc(C(F)(F)F)cc3)O[C@@H]2C(F)(F)F)cc1C(F)(F)F` [Example 37, 2-(trifluoromethyl)-4-((2R,5S)-2-(trifluoromethyl)-5-((4-(trifluoromethyl)phenoxy)methyl)oxazolidin-3-yl)benzonitrile] belongs 31.6 nM. Still for that read-out and setting: to `N#Cc1ccc(N2C[C@@H](COc3ccc(N4CCOC4=O)cc3)O[C@@H]2C(F)(F)F)cc1C(F)(F)F` [Example 38, 4-((2R,5S)-5-((4-(2-oxooxazolidin-3-yl)phenoxy)methyl)-2-(trifluoromethyl)oxazolidin-3-yl)-2-(trifluoromethyl)benzonitrile] belongs 165 nM. The same measure, in the same setting: the figure for `CS(=O)(=O)Nc1ccc(OC[C@@H]2CN(c3ccc(C#N)c(C(F)(F)F)c3)[C@@H](C(F)(F)F)O2)cc1` [Example 39, N-(4-(((2R,5S)-3-(4-cyano-3-(trifluoromethyl)phenyl)-2-(trifluoromethyl)oxazolidin-5-yl)methoxy)phenyl)methanesulfonamide] is 42.6 nM. For the molecule `CN(C)C(=O)Nc1ccc(OC[C@@H]2CN(c3ccc(C#N)c(C(F)(F)F)c3)[C@@H](C(F)(F)F)O2)cc1` [Example 40, 3-(4-(((2R,5S)-3-(4-cyano-3-(trifluoromethyl)phenyl)-2-(trifluoromethyl)oxazolidin-5-yl)methoxy)phenyl)-1,1-dimethylurea], the concentration for a half-maximal effect (EC50) (EC50 [nM] (mean ± SE)) stood at 438 nM. The same measure, in the same setting: to `CCOC(=O)Nc1ccc(OC[C@@H]2CN(c3ccc(C#N)c(C(F)(F)F)c3)[C@@H](C(F)(F)F)O2)cc1` [Example 41, ethyl(4-(((2R,5S)-3-(4-cyano-3-(trifluoromethyl)phenyl)-2-(trifluoromethyl)oxazolidin-5-yl)methoxy)phenyl)carbamate] belongs 16.2 nM; to `CC(C)OC(=O)Nc1ccc(OC[C@@H]2CN(c3ccc(C#N)c(C(F)(F)F)c3)[C@@H](C(F)(F)F)O2)cc1` [Example 42, isopropyl (4-(((2R,5S)-3-(4-cyano-3-(trifluoromethyl)phenyl)-2-(trifluoromethyl)oxazolidin-5-yl)methoxy)phenyl)carbamate], 514 nM; to `N#Cc1ccc(N2C[C@@H](COc3ccc(NC(=O)Oc4ccccc4)cc3)O[C@@H]2C(F)(F)F)cc1C(F)(F)F` [Example 43, phenyl (4-(((2R,5S)-3-(4-cyano-3-(trifluoromethyl)phenyl)-2-(trifluoromethyl)oxazolidin-5-yl)methoxy)phenyl)carbamate], 21.3 nM. On to `N#Cc1ccc(OC[C@@H]2CN(c3ccc(C#N)c(C(F)(F)F)c3)[C@H](C(F)(F)F)O2)cn1` [Example 45, 5-(((2S,5S)-3-(4-cyano-3-(trifluoromethyl)phenyl)-2-(trifluoromethyl)oxazolidin-5-yl)methoxy)picolinonitrile], for which the concentration for a half-maximal effect (EC50) (EC50 [nM] (mean ± SE)) is 44.1 nM. The same measure, in the same setting: the figure for `N#Cc1cccc(OC[C@@H]2CN(c3ccc(C#N)c(C(F)(F)F)c3)[C@@H](C(F)(F)F)O2)c1` [Example 46, 4-((2R,5S)-5-((3-cyanophenoxy)methyl)-2-(trifluoromethyl)oxazolidin-3-yl)-2-(trifluoromethyl)benzonitrile] is 31.5 nM; for `N#Cc1ccc(OC[C@@H]2CN(c3ccc(C#N)c(C(F)(F)F)c3)[C@@H]([C@@H](O)C(F)(F)F)O2)cc1` [Example 48, 4-((2R,5S)-5-((4-cyanophenoxy)methyl)-2-((R)-2,2,2-trifluoro-1-hydroxyethyl)oxazolidin-3-yl)-2-(trifluoromethyl)benzonitrile] it is 1520 nM. The same measure, in the same setting: the figure for `N#Cc1ccc(OC[C@@H]2CN(c3ccc(C#N)c(C(F)(F)F)c3)[C@@H]([C@H](O)C(F)(F)F)O2)cc1` [Example 49, 4-((2R,5S)-5-((4-cyanophenoxy)methyl)-2-((S)-2,2,2-trifluoro-1-hydroxyethyl)oxazolidin-3-yl)-2-(trifluoromethyl)benzonitrile] is 1700 nM; for `N#Cc1ccc(N2C[C@@H](COc3ccc(NC(=O)CN)cc3)O[C@@H]2C(F)(F)F)cc1C(F)(F)F` [Example 50, 2-amino-N-(4-(((2R,5S)-3-(4-cyano-3-(trifluoromethyl)phenyl)-2-(trifluoromethyl)oxazolidin-5-yl)methoxy)phenyl)acetamide 2,2,2-trifluoroacetate] it is 15.6 nM; for `N#Cc1ccc(N2C[C@@H](COc3ccc(NC(=O)[C@@H]4CCCN4)cc3)O[C@@H]2C(F)(F)F)cc1C(F)(F)F` [Example 51, (S)-N-(4-(((2R,5S)-3-(4-cyano-3-(trifluoromethyl)phenyl)-2-(trifluoromethyl)oxazolidin-5-yl)methoxy)phenyl)pyrrolidine-2-carboxamide 2,2,2-trifluoroacetate] it is 165 nM. With `N#Cc1ccc(N2C[C@@H](COc3ccc(CC(=O)O)cc3)O[C@@H]2C(F)(F)F)cc1C(F)(F)F` [Example 52, 2-(4-(((2R,5S)-3-(4-cyano-3-(trifluoromethyl)phenyl)-2-(trifluoromethyl)oxazolidin-5-yl)methoxy)phenyl)acetic acid], where the note is “EC50 [nM] (mean ± SE)”, the EC50 turned out to be 759 nM. Consider `Cc1cc(N2C[C@@H](COc3ccc(C#N)cc3)O[C@@H]2C(F)(F)F)ccc1[N+](=O)[O-]` [Example 53, 4-(((2R,5S)-3-(3-methyl-4-nitrophenyl)-2-(trifluoromethyl)oxazolidin-5-yl)methoxy)benzonitrile], for which, under setting [1], the 50% effective concentration (EC50) amounted to 2.5 ± 0.7 nM. On the same count and under the same terms, to `CC(=O)Nc1ccc(OC[C@@H]2CN(c3ccc([N+](=O)[O-])c(C)c3)[C@@H](C(F)(F)F)O2)cc1` [Example 54, N-(4-(((2R,5S)-3-(3-methyl-4-nitrophenyl)-2-(trifluoromethyl)oxazolidin-5-yl)methoxy)phenyl)acetamide] belongs 0.86 nM. On to `Cc1cc(N2C[C@@H](COc3ccc(C#N)nc3)O[C@@H]2C(F)(F)F)ccc1[N+](=O)[O-]` [Example 55, 5-(((2R,5S)-3-(3-methyl-4-nitrophenyl)-2-(trifluoromethyl)oxazolidin-5-yl)methoxy)picolinonitrile], for which the half-maximal effective concentration (EC50) under setting [1] was 4.49 nM. For the setting “EC50 [nM] (mean ± SE)”, `N#Cc1ccc(N2C[C@@H](COc3ccccc3)O[C@@H]2C(F)(F)F)cc1C(F)(F)F` [Example 58, 4-((2R,5S)-5-(phenoxymethyl)-2-(trifluoromethyl)oxazolidin-3-yl)-2-(trifluoromethyl)benzonitrile] gave an EC50 of 107 nM. Still for that read-out and setting: the figure for `N#Cc1ccc(N2C[C@@H](COc3ccncc3)O[C@@H]2C(F)(F)F)cc1C(F)(F)F` [Example 59, 4-((2R,5S)-5-((pyridin-4-yloxy)methyl)-2-(trifluoromethyl)oxazolidin-3-yl)-2-(trifluoromethyl)benzonitrile] is 3.25 nM; for `N#Cc1ccc(N2C[C@@H](COc3cccnc3)O[C@@H]2C(F)(F)F)cc1C(F)(F)F` [Example 60, 4-((2R,5S)-5-((pyridin-3-yloxy)methyl)-2-(trifluoromethyl)oxazolidin-3-yl)-2-(trifluoromethyl)benzonitrile] it is 10.4 nM. For `N#Cc1ccc(OC[C@@H]2CN(c3ccc(Cl)c(Cl)c3)[C@@H](C(F)(F)F)O2)cc1` [Example 63, 4-(((2R,5S)-3-(3,4-dichlorophenyl)-2-(trifluoromethyl)oxazolidin-5-yl)methoxy)benzonitrile], the concentration giving a half-maximal response (EC50) under setting [1] came to 36.3 nM. In the case of `N#Cc1ccc(OC[C@@H]2CN(c3ccc([N+](=O)[O-])c(C(F)(F)F)c3)[C@@H](C(F)(F)F)O2)cc1` [Example 64, 4-(((2R,5S)-3-(4-nitro-3-(trifluoromethyl)phenyl)-2-(trifluoromethyl)oxazolidin-5-yl)methoxy)benzonitrile], the EC50 under setting [1] is 34 nM. Regarding `N#Cc1ccc(OC[C@@H]2CN(c3ccc([N+](=O)[O-])c(C(F)(F)F)c3)[C@@H](C(F)(F)F)O2)cn1` [Example 65, 5-(((2R,5S)-3-(4-nitro-3-(trifluoromethyl)phenyl)-2-(trifluoromethyl)oxazolidin-5-yl)methoxy)picolinonitrile], the concentration giving a half-maximal response (EC50) under setting [1] turned out to be 59.5 nM. Same read-out and setting: the figure for `O=[N+]([O-])c1ccc(N2C[C@@H](COc3ccncc3)O[C@@H]2C(F)(F)F)cc1C(F)(F)F` [Example 66, (2R,5S)-3-(4-nitro-3-(trifluoromethyl)phenyl)-5-((pyridin-4-yloxy)methyl)-2-(trifluoromethyl)oxazolidine] is 19.9 nM.
